Seven compounds from patent US8404677B2, “Kinase inhibitors” (Genosco, priority 2009, dated 2013) can be followed below.

One assay has as its target T1, truncated human JAK2 (Homo sapiens, UniProt O60674).
T1 construct: truncated human FAK, RET, FLT3, JAK2, and LRRK2 (CARNA BIOSCIENCES™); purchased Carna Biosciences
As to the kind of experiment: Inhibition of enzymatic kinase activity (LANCE Ulight). It is filed as biochemical. The protocol: (§1) Inhibition of Enzymatic SYK, ZAP70, PYK2, FAK, PIM1, RET, FLT3, JAK2 and LRRK2 Kinase Activity
(§2) Compounds of the invention were initially diluted to 10 mM in 100% DMSO (CALBIOCHEM™) for storage and made into kinase buffer solution to create a compound concentration ranging from 1 uM and 10 uM. Serial dilutions of compounds of the invention were dispensed into a 96-well plate (GREINER BIOSCIENCES™) at 6 μL each. Purified full-length human SYK, ZAP70, PIM1, PYK2 and truncated human FAK, RET, FLT3, JAK2, and LRRK2 (CARNA BIOSCIENCES™) were diluted in kinase buffer and added to the compound solutions and pre-incubated for 30 minutes at room temperature (1 hour for PYK2). […] The reaction mixture was incubated for 1 hour (2 hours for PYK2). Following the incubation, the stop solution made with EDTA, water, and Lance detection buffer ([…]™) was added (12 μL each) to stop phosphorylation.
In general terms: In TR-FRET formats the signal depends on donor and acceptor labels being close together.

A further assay has as its target T2, truncated human FLT3 (Homo sapiens, UniProt P36888).
T2 construct: truncated human FAK, RET, FLT3, JAK2, and LRRK2 (CARNA BIOSCIENCES™); purchased Carna Biosciences
T2 sequence (P36888 564-993 limits assumed): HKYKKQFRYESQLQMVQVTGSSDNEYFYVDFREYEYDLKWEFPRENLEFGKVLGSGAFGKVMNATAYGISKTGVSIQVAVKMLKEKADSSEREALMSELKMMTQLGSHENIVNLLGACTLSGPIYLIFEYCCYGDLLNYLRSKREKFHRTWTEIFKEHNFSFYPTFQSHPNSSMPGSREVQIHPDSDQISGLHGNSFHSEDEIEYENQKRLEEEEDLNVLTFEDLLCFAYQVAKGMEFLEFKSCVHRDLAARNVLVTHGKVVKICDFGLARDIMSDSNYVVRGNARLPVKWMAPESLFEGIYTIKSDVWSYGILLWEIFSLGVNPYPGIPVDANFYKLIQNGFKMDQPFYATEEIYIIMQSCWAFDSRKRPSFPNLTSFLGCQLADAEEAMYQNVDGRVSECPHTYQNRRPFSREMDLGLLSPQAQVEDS
The assay is described as above. It is filed as biochemical. The protocol: as §1, §2

A further assay deals with T3, truncated human RET (Homo sapiens, UniProt P07949).
T3 construct: truncated human FAK, RET, FLT3, JAK2, and LRRK2 (CARNA BIOSCIENCES™); purchased Carna Biosciences
T3 sequence (P07949 658-1114 limits assumed): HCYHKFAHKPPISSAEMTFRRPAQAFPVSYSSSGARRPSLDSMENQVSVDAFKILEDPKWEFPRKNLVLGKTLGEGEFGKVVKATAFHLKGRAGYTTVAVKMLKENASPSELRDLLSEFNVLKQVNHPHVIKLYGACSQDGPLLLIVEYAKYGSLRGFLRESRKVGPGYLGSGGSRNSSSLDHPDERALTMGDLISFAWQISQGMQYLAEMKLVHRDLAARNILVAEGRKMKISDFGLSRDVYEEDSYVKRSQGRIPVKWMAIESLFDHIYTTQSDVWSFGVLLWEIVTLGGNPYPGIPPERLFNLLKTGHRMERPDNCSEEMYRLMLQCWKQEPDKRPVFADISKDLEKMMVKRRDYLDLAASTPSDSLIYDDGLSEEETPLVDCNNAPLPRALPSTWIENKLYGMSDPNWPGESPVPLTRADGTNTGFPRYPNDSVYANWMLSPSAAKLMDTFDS
Described as above. It is filed as biochemical. As to the method:
as §1, §2

Assay [1] has as its system HEL cells expressing human JAK2 V617F. As to the kind of experiment: Cell viability assay: JAK2 inhibition. Conditions: for IC50: Homo sapiens, 72-hour incubation. It is filed as cell-based. The protocol:
(§3) Compounds of the invention were tested for cell viability effect on HEL cells. For cell viability assay, HEL cells expressing human JAK2 V617F were obtained from the American Type Culture Collection (ATCC, Manassas, Va.). This cell line was maintained with an Roswell Park Memorial Institute (RPMI) medium (HyClone™) containing 10 bovine calf serum (BCS; Hyclone™) supplemented iron. The HEL cells were seeded at 2×10^4 cells in 96 well culture plates, and serially diluted compound was then added. After a 72-hour incubation period at 37° C., Cell viability was measured using the ATPLite 1 step assay (Perkin-Elmer™) that is based on the quantification of ATP from viable cells. CellTiter Aqueous assay (Promega™) was also performed in parallel as an orthogonal assay. IC50 values were calculated using nonlinear regression and defined as the concentration needed for a 50 reduction in luminescence or absorbance treated versus untreated control cells (Prism™ Software).

Another assay has as its system MTC-TT. Kind of assay: Cell viability assay: RET inhibition. It is filed as cell-based, human. Particulars: for IC50: Homo sapiens, 48 h, two days after drug treatment; for inhibition level compared with Vandetinib and Sunitinib: RET induced cancer cell line. The protocol: In order to address RET dependent cell viability, the medullary thyroid carcinoma cell line, MTC-TT representing MEN2A was utilized to test compounds of the invention. MTC-TT were cultured at RPMI containing 15 bovine calf serum (Hyclon™ of Thermo™) and supplemented with 2 mM L-Glutamine. The cells were grown at a density of 5×10^4 cells/100 μL/well in duplicate in 96-well plates for one day and treated with different concentrations of test compound. Cell viability for MTC-TT two days after drug treatment was measured by Cell Titer 96 Aqueous One Solution Reagent (Promega™) according to the manufacture instructions. The IC50 value of test compound was calculated at Gradpad Prism 5 unless specified otherwise.

Assay [2] relates to MV4-11 cells expressing human FLT3-ITD. As to the kind of experiment: Cell viability assay: FLT3-ITD-positive cells. It is filed as cell-based. Conditions: for inhibition level compared with Vandetinib and Sunitinib: FLT3 ITD induced cancer cell line; for IC50: Homo sapiens, 72-hour incubation, read-out: MV-4-11 cell viability IC50. The protocol: as §3, with “MV4-11” for “HEL”, “FLT3-ITD” for “JAK2 V617F”, “The HEL cells were seeded at 2×10^4 cells in 96 well culture plates, and serially diluted compound was then added. After a 72-hour incubation period at 37° C., Cell viability was measured using the ATPLite 1 step assay (Perkin-Elmer™) that is based on the quantification of ATP from viable cells.” left out

The subject of assay [3] is SN4741 cells transfected with vector. Kind of assay: Neuroprotection from LRRK2-mediated dopaminergic cell death (H2O2, crystal violet). It is filed as cell-based, murine. Particulars: 100 μM hydrogen peroxide. The protocol:
(§4) SN4741, a murine dopaminergic cell line were cultured in DMEM containing 10 FBS at 37° C., respectively. SN4741 cells (1.5×10^4/well) were seeded in 48 well plates 1 day before transient transfection with 1 μg of the pcDNA3.1 plasmids of either vector, LRRK wildtype cDNA, LRRK G2019S cDNA, by standard CaCl2 precipitation. Two days after transfection, cells were treated with 100 μM hydrogen peroxide for 1 day and cell viability was measured by crystal violet assay. For compound treatment, the test compounds were added at 0.05 μM, 0.5 μM and 5 μM and the cells were incubated for 1 hour prior to the addition of hydrogen peroxide.
(§5) SN4741 cells were transfected with plasmids containing the LRRK2 wild-type or G2019S and incubated them for 2 days followed by addition of 100 μM of hydrogen peroxide for 24 h to sensitize them to oxidative stress. Cell survival was assessed using the crystal violet.

In assay [4] the test system is SN4741 cells overexpressing LRRK2 G2019S. Described as above. It is filed as cell-based, murine. Particulars: for Percent Cell Death: 100 μM hydrogen peroxide. As to the method: as §4, §5
Assay [5] deals with SN4741 cells overexpressing LRRK2 wild-type. The description is as above. It is filed as cell-based, murine. Conditions: for Percent Cell Death: LRRK2 WT, 100 μM hydrogen peroxide. The protocol:
as §4, §5

In a further assay the target is truncated human LRRK2 (Homo sapiens, UniProt Q5S007). As to the kind of experiment: Inhibition of enzymatic kinase activity (LANCE Ulight). It is filed as biochemical. As to the method: as §1, §2
Assay [6] has as its system TNF-α release in THP-1 cells, LPS stimulation. Kind of assay: SYK independent TNF-α release assay (LPS stimulation). Conditions: Homo sapiens; LPS stimulation, At 1 μM, THP-1; read-out: Inhibition of TNF-α Release (percentage inhibition). It is filed as cell-based, human. The protocol: For SYK independent TNF-α release assay (i.e., via lipopolysaccharide (LPS)-stimulation), THP-1 cells derived from human monocytic cells were obtained from the American Type Culture Collection (ATCC, Manassas, Va.). This cell line was maintained with an RPMI medium (GIBCO™) containing 10 fetal bovine serum (FBS, GIBCO™) and 0.05 mM 2-mercaptoethanol. The THP-1 cells were seeded at 1×10^5 cells/100 μL/well into 96-well culture plates, and treated with lipopolysaccharide (1 μg/ml), and serially diluted compound was then added. After an 18-hour incubation period at 37° C., supernatants were collected for the determination of the TNF-α level by ELISA, and the remaining cells were subjected to an MTT assay to determine the cytotoxic effects of compound.

T1 sequence (O60674 826-1132 limits assumed): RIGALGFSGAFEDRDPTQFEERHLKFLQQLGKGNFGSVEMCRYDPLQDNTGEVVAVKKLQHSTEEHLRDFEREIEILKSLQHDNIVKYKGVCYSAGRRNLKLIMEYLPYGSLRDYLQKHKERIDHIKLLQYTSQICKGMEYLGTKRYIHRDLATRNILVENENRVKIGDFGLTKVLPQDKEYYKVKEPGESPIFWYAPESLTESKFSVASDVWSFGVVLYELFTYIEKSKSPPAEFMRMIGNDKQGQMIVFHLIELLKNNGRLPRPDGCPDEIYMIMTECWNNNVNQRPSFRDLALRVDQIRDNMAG
Chain of truncated human LRRK2 (Q5S007 1879-2138 limits assumed): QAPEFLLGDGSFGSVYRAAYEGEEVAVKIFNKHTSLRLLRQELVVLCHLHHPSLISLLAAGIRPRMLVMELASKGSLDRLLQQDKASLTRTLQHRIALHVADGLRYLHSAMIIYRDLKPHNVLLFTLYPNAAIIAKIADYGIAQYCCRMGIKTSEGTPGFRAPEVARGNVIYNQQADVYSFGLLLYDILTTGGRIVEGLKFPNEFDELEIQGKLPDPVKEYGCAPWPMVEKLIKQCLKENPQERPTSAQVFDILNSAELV

In the case of `O=c1[nH]ccc2nc(N3CCC(CO)CC3)nc(Nc3ccc(N4CCS(=O)(=O)CC4)cc3)c12` [Compound 137], the IC50 turned out to be 1.6 nM on truncated human JAK2, 12.4 nM against truncated human FLT3, 5.8 nM against truncated human RET and 89 nM in [1]. For the same compound, in [1], the “inhibition level compared with Sorafenib” value is given as “inhibition level greater than those exhibited by Sorafenib”.
The compound `CNC(=O)c1cc(Oc2ccc(NC(=O)Nc3ccc(Cl)c(C(F)(F)F)c3)cc2)ccn1` [Sorafenib, reference compound] came in with an IC50 in assay [1] of over 1000 nM.
On to `Cl.O=c1[nH]ccc2nc(N[C@H]3CCNC3)nc(Nc3ccc(C(F)(F)F)cc3)c12` [Compound 8, (S)-2-(pyrrolidin-3-ylamino)-4-(4-(trifluoromethyl)phenylamino)pyrido[4,3-d]pyrimidin-5(6H)-one hydrochloride], for which the IC50 in the assay on MTC-TT was 14 nM; in [2] (MV4-11), 0.1 nM; against truncated human JAK2 it was 12.7 nM; against truncated human FLT3, 0.2 nM; against truncated human RET it was 2.6 nM. For the same compound, in the assay with MTC-TT (MTC-TT), the “times higher inhibition in IC50 than Vandetanib and Sunitinib” value is on record as 6 time. In addition, the “inhibition level compared with Vandetinib and Sunitinib” value is “inhibition level greater than those exhibited by Vandetinib and Sunitinib” in the assay on MTC-TT; “inhibition level greater than those exhibited by Vandetinib and Sunitinib” in assay [2]. Moreover, in assay [2] (MV4-11), the “times higher inhibition in IC50 than Sunitinib and PKC-412” value is 10-30 time.
For the compound `O=c1[nH]ccc2nc(N3CCC(O)CC3)nc(Nc3cc(C(F)(F)F)cc(C(F)(F)F)c3)c12` [Compound 102, 4-(3,5-bis(trifluoromethyl)phenylamino)-2-(4-hydroxypiperidin-1-yl)pyrido[4,3-d]pyrimidin-5(6H)-one], the “Percent Cell Death” value in assay [3] (0.05 uM) amounted to 50.0%; in assay [3] (0.5 uM), 54.4%; in assay [3] (5 uM), 50.5%; in assay [4] (0.05 uM), 54.9%; in assay [4] (0.5 uM) it was 56.0%; in assay [4] (5 uM) it was 44.0%. The “Percent Cell Death” value in [5] (0.05 uM) was found to be 49.9%; in [5] (0.5 uM) it was 55.3%; in assay [5] (5 uM), 46.5%. Further, the “protective effects against LRRK2-associated cell death” value in assay [4] (at 0.05 uM and higher, vs vector, DMSO or H2O2 controls) was “increased protective effects”; in [5] (LRRK2 wild-type, at 0.05 uM and higher, vs vector, DMSO or H2O2 controls), “increased protective effects”. On truncated human LRRK2, this compound displayed a 50% inhibitory concentration (IC50) of 325 nM.
As for `C[C@@H]1C[C@H]2[C@@H]3CCC4=CC(=O)C=C[C@]4(C)[C@@]3(F)[C@@H](O)C[C@]2(C)[C@@]1(O)C(=O)CO` [Dexamethasone, reference compound], in [6], the inhibition at 1 µM came to 68.4%.
In the case of `Cl.O=c1[nH]ccc2nc(N[C@H]3CCNC3)nc(Nc3ccc(N4CCOCC4)cc3)c12` [Compound 136, (S)-4-(4-morpholinophenylamino)-2-(pyrrolidin-3-ylamino)pyrido[4,3-d]pyrimidin-5(6H)-one hydrochloride], the IC50 with MTC-TT was 33 nM; in assay [2] (MV4-11) it was 0.1 nM; at truncated human JAK2, 3.9 nM; against truncated human FLT3, 0.1 nM; against truncated human RET it was 1.3 nM. Also, the “inhibition level compared with Vandetinib and Sunitinib” value with MTC-TT is “inhibition level greater than those exhibited by Vandetinib and Sunitinib”; in assay [2] it was “inhibition level greater than those exhibited by Vandetinib and Sunitinib”.
For the compound `O=c1[nH]ccc2nc(N3CCC(CO)CC3)nc(Nc3ccc(N4CCOCC4)cc3)c12` [Compound 139, 2-(4-(hydroxymethyl)piperidin-1-yl)-4-(4-morpholinophenylamino)pyrido[4,3-d]pyrimidin-5(6H)-one], the half-inhibitory concentration (IC50) was 1.6 nM against truncated human JAK2, 9.1 nM at truncated human FLT3, 4.1 nM against truncated human RET and 152 nM in [1]. Besides, in assay [1], the “inhibition level compared with Sorafenib” value was “inhibition level greater than those exhibited by Sorafenib”. The “times higher inhibition in IC50 than Sorafenib” value in [1] is recorded as “about 10 time”.

Usually IC50 stands for the concentration that gives 50% inhibition. Usually inhibition stands for the drop in the measured response relative to a control, in per cent.
